Key:
[1] = test system: VRE clinical isolate C21667; assay type: cell-based, E. faecalis
[2] = test system: VRE clinical isolate S344; assay type: cell-based, E. faecium
VRE clinical isolate D1 = assay: organism not typed; assay type: cell-based, E. faecium
[3] = test system: VRE clinical isolate SL152; assay type: cell-based, E. faecium
[4] = test system: VRE clinical isolate C28535; assay type: cell-based, E. faecalis
[5] = test system: VRE clinical isolate S557; assay: organism not typed; assay type: cell-based, E. faecium
[6] = test system: VRE clinical isolate S234; assay: organism not typed; assay type: cell-based, E. faecalis
[7] = test system: VRE clinical isolate C27569; assay type: cell-based, E. faecium

Measured: MIC

Cc1cc(=O)n(C)c2c3c4c(cc12)c(C)cc(=O)n4CO3 [DNM, deoxynybomycin]
0.25 µg/mL: all assays above

CCn1c(=O)cc(C)c2cc3c(C)cc(=O)n4c3c(c21)OC4 [DNM-2]
0.25 µg/mL: [4] | [7]

From patent US9920069B2, “Compounds for treatment of fluoroquinolone-resistant bacteria” (The Board of Trustees of the University of Illinois, priority 2014, dated 2018)
